Patent publication US20250049948A1, “NOVEL IONIZABLE LIPIDS AND LIPID NANOPARTICLES AND METHODS OF USING THE SAME” (Sail Biomedicines, Inc., priority 2021, published 2025)

Legend:
Balb/c mice [1] = experiment: In-vivo bioluminescent imaging of LNP compositions (Example 6); details: for Bioluminescence (IV) Liver / Bioluminescence (IV) Lung / Bioluminescence (IV) Spleen / Bioluminescence (IV) Whole Body: 4-6 hours post-dose; for Spleen: Liver Ratio: intravenous
Balb/c mice [2] = experiment: EPO levels in plasma, EPO MSD kit (Example 6); assay type: in vivo; details: mRNA dose 5 μg FLUC + 5 μg EPO, intravenous
[3] = LNP size and polydispersity, Zetasizer Ultra; assay type: physicochemical
Protocol: (§1) For each LNP composition, the lipid mix and mRNA solution were mixed at a 1:3 ratio by volume, respectively, on a NanoAssemblr Ignite (Precision Nanosystems) at a total flow rate of 9 mL/min. The resulting compositions were then loaded into Slide-A-Lyzer G2 dialysis cassettes (10 k MWCO) and dialyzed in 200 times sample volume of 1×PBS for 2 hours at room temperature with gentle stirring. The PBS was refreshed, and the compositions were further dialyzed for at least 14 hours at 4° C. with gentle stirring. The dialyzed compositions were then collected and concentrated by centrifugation at 3000×g using Amicon Ultra centrifugation filters (100 k MWCO). The concentrated particles were characterized for size, polydispersity, and particle concentration using Zetasizer Ultra (Malvern Panalytical) and for mRNA encapsulation efficiency using Quant-iT RiboGreen RNA Assay Kit (ThermoFisher Scientific).

[4] = mRNA encapsulation efficiency, Quant-iT RiboGreen RNA Assay; assay type: physicochemical
Protocol: as §1

[5] = Apparent LNP pKa, TNS assay; assay type: physicochemical; details: LNP with FLUC/EPO 1:1 mRNA
Protocol: For pKa measurement, a […] assay was conducted according to those described in Sabnis et al., Molecular Therapy, 26(6):1509-19), which is incorporated herein by reference in its entirety. Briefly, 20 buffers (10 mM sodium phosphate, 10 mM sodium borate, 10 mM sodium citrate, and 150 mM sodium chloride, in distilled Water) of unique pH values ranging from 3.0-12.0 were prepared using 1M sodium hydroxide and 1M hydrochloric acid. 3.25 μL of a LNP composition (0.04 mg/mL mRNA, in PBS) was incubated with 2 μL of TNS reagent (0.3 mM, in DMSO) and 90 μL of buffer for each pH value (described above) in a 96-well black-walled plate. Each pH condition was performed in triplicate wells. The TNS fluorescence was measured using a Biotek Cytation Plate reader at excitation/emission wavelengths of 321/445 nm. The fluorescence values were then plotted and fit using a 4-parameter sigmoid curve. From the fit, the pH value yielding the half-maximal fluorescence was calculated and reported as the apparent LNP pKa value.

[6] = mRNA dose 5 μg FLUC (CRE/FLUC 1:1 LNP)

## CCCCCCC(CCCCCC)CCCOC(=O)CCCCCCCN(CCCCCCCC(=O)OCCCC(CCCCCC)CCCCCC)C(=O)CCN1CCCC1 [Compound 2142, bis(4-hexyldecyl) 8,8′-((3-(pyrrolidin-1-yl)propanoyl)azanediyl) dioctanoate]
Balb/c mice [1]; mRNA dose 5 μg FLUC + 5 μg EPO
  Bioluminescence (IV) Liver: 2.4E + 05
  Bioluminescence (IV) Lung: 2.0E + 05
  Bioluminescence (IV) Spleen: 5.6E + 05
  Bioluminescence (IV) Whole Body: 7.8E + 05
  Spleen: Liver Ratio: 2.758
Balb/c mice [2]
  hEPO: 7.3E + 03
[3]; LNP with FLUC/EPO 1:1 mRNA
  PDI: 0.06
  Size (nm): 69.2 nm
[4]; LNP with FLUC/EPO 1:1 mRNA
  % EE: 96.7%

## CCCCCCCCC(CCCCCC)C(=O)OCCCCCCN(CCCCCCOC(=O)C(CCCCCC)CCCCCCCC)C(=O)CCN1CCCC1 (centres unmarked) [Compound 2215, ((3-(pyrrolidin-1-yl)propanoyl)azanediyl)bis (hexane-6,1-diyl) bis(2-hexyldecanoate)]
Balb/c mice [1]; mRNA dose 5 μg FLUC + 5 μg EPO
  Bioluminescence (IV) Liver: 2.2E + 06
  Bioluminescence (IV) Lung: 6.5E + 04
  Bioluminescence (IV) Spleen: 6.6E + 05
  Bioluminescence (IV) Whole Body: 3.2E + 07
  Spleen: Liver Ratio: 0.449
[3]; LNP with FLUC/EPO 1:1 mRNA
  PDI: 0.1
  Size (nm): 80.18 nm
[4]; LNP with FLUC/EPO 1:1 mRNA
  % EE: 96.3%
[5]
  pKa (TNS): 7.12

## CCCCCCC(CCCCCC)CCCOC(=O)CCCCCN(CCCCCC(=O)OCCCC(CCCCCC)CCCCCC)C(=O)CCN1CCCC1 [Compound 2143, bis(4-hexyldecyl) 6,6′-((3-(pyrrolidin-1-yl)propanoyl)azanediyl)dihexanoate]
Balb/c mice [1]; [6]
  Bioluminescence (IV) Liver: 1.3E + 05
  Bioluminescence (IV) Lung: 6.3E + 03
  Bioluminescence (IV) Spleen: 6.5E + 05
  Bioluminescence (IV) Whole Body: 1.7E + 05
  Spleen: Liver Ratio: 5.050
[3]; LNP with CRE/FLUC 1:1 mRNA
  PDI: 0.11
  Size (nm): 78.6 nm
[3]; LNP with EGFP mRNA
  PDI: 0.08
  Size (nm): 83.4 nm
[4]; LNP with CRE/FLUC 1:1 mRNA
  % EE: 97.1%
[4]; LNP with EGFP mRNA
  % EE: 97.3%

## CCCCCCCCC(CCCCCC)C(=O)OCCCCCCN(CCCCCCOC(=O)C(CCCCCC)CCCCCCCC)CCOCCOCCN(C)C (centres unmarked) [Compound 2216, 11-(6-((2-hexyldecanoyl)oxy)hexyl)-2-methyl-5,8-dioxa-2,11-diazaheptadecan-17-yl 2-hexyldecanoate]
Balb/c mice [1]; mRNA dose 5 μg FLUC + 5 μg EPO
  Bioluminescence (IV) Liver: 3.2E + 05
  Bioluminescence (IV) Lung: 9.0E + 03
  Bioluminescence (IV) Spleen: 3.8E + 05
  Bioluminescence (IV) Whole Body: 1.5E + 06
  Spleen: Liver Ratio: 1.539
[3]; LNP with FLUC/EPO 1:1 mRNA
  PDI: 0.11
  Size (nm): 88.81 nm
[4]; LNP with FLUC/EPO 1:1 mRNA
  % EE: 96.8%
[5]
  pKa (TNS): 7

## CCCCCCC(CCCCCC)CCCOC(=O)CCCCCCCN(CCCCCCCC(=O)OCCCC(CCCCCC)CCCCCC)CCCCN(C)C [Compound 2130, bis(4-hexyldecyl) 8,8′-((4-(dimethylamino)butyl)azanediyl) dioctanoate]
Balb/c mice [1]; mRNA dose 5 μg FLUC + 5 μg EPO
  Bioluminescence (IV) Liver: 7.0E + 04
  Bioluminescence (IV) Lung: 1.4E + 05
  Bioluminescence (IV) Spleen: 3.0E + 03
  Bioluminescence (IV) Whole Body: 1.2E + 04
  Spleen: Liver Ratio: 0.045
Balb/c mice [2]
  hEPO: 1.5E + 02
[3]; LNP with FLUC/EPO 1:1 mRNA
  PDI: 0.13
  Size (nm): 68.7 nm
[4]; LNP with FLUC/EPO 1:1 mRNA
  % EE: 98.5%

## CCCCCCC(CCCCCC)CCCOC(=O)CCCCCCCN(CCCCCCCC(=O)OCCCC(CCCCCC)CCCCCC)CCC(O)CN(C)C (centres unmarked) [Compound 2139, bis(4-hexyldecyl) 8.8′-((4-(dimethylamino)-3-hydroxybutyl)azanediyl) dioctanoate]
Balb/c mice [1]; mRNA dose 5 μg FLUC + 5 μg EPO
  Bioluminescence (IV) Liver: 1.7E + 05
  Bioluminescence (IV) Lung: 2.2E + 05
  Bioluminescence (IV) Spleen: 1.0E + 05
  Bioluminescence (IV) Whole Body: 4.1E + 04
  Spleen: Liver Ratio: 0.583
Balb/c mice [2]
  hEPO: 2.0E + 02
[3]; LNP with FLUC/EPO 1:1 mRNA
  PDI: 0.18
  Size (nm): 88.6 nm
[4]; LNP with FLUC/EPO 1:1 mRNA
  % EE: 98.3%

## CCCCCC(CCCCC)CCCOC(=O)CCCCCCCN(CCCCCCCC(=O)OCCCC(CCCCC)CCCCC)CCC(O)CN(C)C (centres unmarked) [Compound 2138, bis(4-pentylnonyl) 8,8′-((4-(dimethylamino)-3-hydroxybutyl)azanediyl) dioctanoate]
Balb/c mice [1]; [6]
  Bioluminescence (IV) Liver: 1.7E + 05
  Bioluminescence (IV) Lung: 1.2E + 03
  Bioluminescence (IV) Spleen: 2.8E + 04
  Bioluminescence (IV) Whole Body: 3.7E + 03
  Spleen: Liver Ratio: 0.236
[3]; LNP with CRE/FLUC 1:1 mRNA
  PDI: 0.35
  Size (nm): 112.7 nm
[4]; LNP with CRE/FLUC 1:1 mRNA
  % EE: 97%

## CCCCCC(CCCCC)CCCOC(=O)CCCCCCCN(CCCCCCCC(=O)OCCCC(CCCCC)CCCCC)C(=O)CCCN(C)C [Compound 2132, bis(4-pentylnonyl) 8,8′-((4-(dimethylamino)butanoyl)azanediyl) dioctanoate]
Balb/c mice [1]; [6]
  Bioluminescence (IV) Liver: 1.4E + 05
  Bioluminescence (IV) Lung: 1.7E + 03
  Bioluminescence (IV) Spleen: 2.5E + 04
  Bioluminescence (IV) Whole Body: 7.0E + 03
  Spleen: Liver Ratio: 0.212
[3]; LNP with CRE/FLUC 1:1 mRNA
  PDI: 0.13
  Size (nm): 76.3 nm
[3]; LNP with EGFP mRNA
  PDI: 0.20
  Size (nm): 90.4 nm
[4]; LNP with CRE/FLUC 1:1 mRNA
  % EE: 97.7%
[4]; LNP with EGFP mRNA
  % EE: 97.2%

## CCCCCCC(CCCCCC)CCCOC(=O)CCCCCCCN(CCCCCCCC(=O)OCCCC(CCCCCC)CCCCCC)CCOCCOCCN(C)C [Compound 2145, 4-hexyldecyl 11-(8-((4-hexyldecyl)oxy)-8-oxooctyl)-2-methyl-5,8-dioxa-2,11-diazanonadecan-19-oate]
Balb/c mice [1]; mRNA dose 5 μg FLUC + 5 μg EPO
  Bioluminescence (IV) Liver: 1.1E + 05
  Bioluminescence (IV) Lung: 7.2E + 04
  Bioluminescence (IV) Spleen: 1.2E + 03
  Bioluminescence (IV) Whole Body: 4.0E + 03
  Spleen: Liver Ratio: 0.012
Balb/c mice [2]
  hEPO: 8.4E + 02
[3]; LNP with FLUC/EPO 1:1 mRNA
  PDI: 0.21
  Size (nm): 95.4 nm
[4]; LNP with FLUC/EPO 1:1 mRNA
  % EE: 97.6%

## CCCCCCC(CCCCCC)CCCOC(=O)CCCCCN(CCCCCC(=O)OCCCC(CCCCCC)CCCCCC)CCCCN(C)C [Compound 2131, bis(4-hexyldecyl) 6,6′-((4-(dimethylamino)butyl)azanediyl) dihexanoate]
Balb/c mice [1]; [6]
  Bioluminescence (IV) Liver: 1.3E + 05
  Bioluminescence (IV) Lung: 2.4E + 03
  Bioluminescence (IV) Spleen: 9.5E + 03
  Bioluminescence (IV) Whole Body: 1.2E + 04
  Spleen: Liver Ratio: 0.076
[3]; LNP with CRE/FLUC 1:1 mRNA
  PDI: 0.13
  Size (nm): 71.2 nm
[4]; LNP with CRE/FLUC 1:1 mRNA
  % EE: 97.1%

## CCCCCC(CCCCC)CCCOC(=O)CCCCCCCN(CCCCCCCC(=O)OCCCC(CCCCC)CCCCC)CCCCN(C)C [Compound 2129, bis(4-pentylnonyl) 8,8′-((4-(dimethylamino)butyl)azanediyl) dioctanoate]
Balb/c mice [1]; [6]
  Bioluminescence (IV) Liver: 1.4E + 05
  Bioluminescence (IV) Lung: 2.1E + 03
  Bioluminescence (IV) Spleen: 9.2E + 03
  Bioluminescence (IV) Whole Body: 1.9E + 04
  Spleen: Liver Ratio: 0.066
[3]; LNP with CRE/FLUC 1:1 mRNA
  PDI: 0.07
  Size (nm): 81.1 nm
[4]; LNP with CRE/FLUC 1:1 mRNA
  % EE: 97.0%

## CCCCCC(CCCCC)CCCNC(=O)CCCCCCCN(CCCCCCCC(=O)NCCCC(CCCCC)CCCCC)C(=O)CCN1CCCC1 [Compound 2241, 8-(N-(8-oxo-8-((4-pentylnonyl)amino)octyl)-3-(pyrrolidin-1-yl)propanamido)-N-(4-pentylnonyl) octanamide]
Balb/c mice [1]; mRNA dose 5 μg FLUC + 5 μg EPO
  Bioluminescence (IV) Liver: 3.5E + 03
  Bioluminescence (IV) Lung: 5.4E + 04
  Bioluminescence (IV) Spleen: 7.6E + 04
  Bioluminescence (IV) Whole Body: 3.1E + 04
  Spleen: Liver Ratio: 22.241
Balb/c mice [2]
  hEPO: 1.6E + 03
[3]; LNP with FLUC/EPO 1:1 mRNA
  PDI: 0.15
  Size (nm): 100.89 nm
[4]; LNP with FLUC/EPO 1:1 mRNA
  % EE: 94.7%

## CCCCCC(CCCCC)CCCOC(=O)CCCCCCCN(CCCCCCCC(=O)OCCCC(CCCCC)CCCCC)CCOCCOCCN(C)C [Compound 2144, 4-pentylnonyl 2-methyl-11-(8-oxo-8-((4-pentylnonyl)oxy)octyl)-5,8-dioxa-2,11-diazanonadecan-19-oate]
Balb/c mice [1]; [6]
  Bioluminescence (IV) Liver: 7.4E + 04
  Bioluminescence (IV) Lung: 1.2E + 03
  Bioluminescence (IV) Spleen: 3.0E + 04
  Bioluminescence (IV) Whole Body: 7.1E + 03
  Spleen: Liver Ratio: 0.401
[3]; LNP with CRE/FLUC 1:1 mRNA
  PDI: 0.26
  Size (nm): 78.0 nm
[3]; LNP with EGFP mRNA
  PDI: 0.29
  Size (nm): 73.5 nm
[4]; LNP with CRE/FLUC 1:1 mRNA
  % EE: 96.8%
[4]; LNP with EGFP mRNA
  % EE: 98.3%

## CCCCCCC(CCCCCC)CCCOC(=O)CCCCCN(CCCCCC(=O)OCCCC(CCCCCC)CCCCCC)CCOCCOCCN(C)C [Compound 2146, 4-hexyldecyl 11-(6-((4-hexyldecyl)oxy)-6-oxohexyl)-2-methyl-5,8-dioxa-2,11-diazaheptadecan-17-oate]
Balb/c mice [1]; [6]
  Bioluminescence (IV) Liver: 9.7E + 04
  Bioluminescence (IV) Lung: 1.2E + 03
  Bioluminescence (IV) Spleen: 4.7E + 04
  Bioluminescence (IV) Whole Body: 7.4E + 03
  Spleen: Liver Ratio: 0.505
[3]; LNP with CRE/FLUC 1:1 mRNA
  PDI: 0.26
  Size (nm): 81.0 nm
[4]; LNP with CRE/FLUC 1:1 mRNA
  % EE: 96.5%
